Experimental data taken from patent US9637490B2, “Antifungal 5,6-dihydro-4-[(difluoroethyl)phenyl]-4H-pyrrolo[1,2-α][1,4]benzodiazepine and 4-(difluoroethyl)phenyl-6H-pyrrolo[1,2-α][1,4]benzodiazepine derivatives” (Janssen Pharmaceutica NV, priority 2010, dated 2017).

Experiments:
[1] = system: Scedosporium prolificans IHEM21157; experiment: Antifungal activity in vitro (resazurin susceptibility screen), Inf. I; assay type: cell-based; details: Lomentospora prolificans, 37 °C, 48 hours, resa time 17 hours
Experimental: (§1) The standard susceptibility screen was performed in 96-well plates (U-bottom, Greiner Bio-One). Serial dilutions (2-fold or 4-fold) of 20 mM compound stock solutions were made in 100% DMSO, followed by an intermediate dilution step in water. These serial dilutions (10 μl) were then spotted onto test-plates that could be stored in the dark at 4° C. for a maximum period of 2 weeks. An adequate broad dose-range was included with 64 μM as the highest in-test concentration. The culture medium RPMI-1640 was supplemented with L-glutamine, 2% glucose and buffered with 3-(N-morpholino)-propanesulfonic acid (MOPS) at pH 7.0±0.1. The different fungal species/isolates (Table 3a) were cryopreserved and 1/1000 diluted in medium just prior to use. A standard inoculum of 200 μl containing 10^3 colony-forming unit (cfu) was then added to each well. A positive control (100% growth=fungal culture without antifungal) and a negative control (0% growth=RPMI-MOPS medium) were included on each plate. Optimal incubation time and temperature were dependent on the fungal species and vary from 24 h for yeasts (37° C.) to one week or more for dermatophytes (27° C.). Inhibition of fungal growth was measured after adding 10 μl of 0.005% (w/v) resazurin (Sigma Aldrich) to each well, based on the principle that living cells convert the non-fluorescent blue resazurin into the pink and fluorescent resorufin, allowing fluorimetric reading (λhd ex 550 nm and μem 590 nm) after an additional incubation period (‘resa’ time mentioned in Table 3a). [table]

Rhizopus oryzae IHEM5223 = experiment: Antifungal activity in vitro (resazurin susceptibility screen), Inf. J; assay type: cell-based; details: 37 °C, 24 hours, resa time 6 hours; for IC50: Rhizopus arrhizus
Experimental: as §1

[2] = system: Sporothrix schenkii B62482; experiment: Antifungal activity in vitro (resazurin susceptibility screen), Inf. A; assay type: cell-based; details: 27 °C, 4 days, resa time 24 hours; for pIC50 Inf. A: Sporothrix schenkii B62482; for IC50: Sporothrix, B62482, Sporothrix schenkii B62482
Experimental: as §1

Microsporum canis B68128 = experiment: Antifungal activity in vitro (resazurin susceptibility screen), Inf. B; assay type: cell-based; details: 27 °C, 9 days, resa time 24 hours; for pIC50 Inf. B: Microsporum canis B68128; for IC50: Microsporum canis, B68128, Microsporum canis B68128
Experimental: as §1

[3] = system: Trichophyton rubrum B68183; experiment: Antifungal activity in vitro (resazurin susceptibility screen), Inf. C; assay type: cell-based; details: 27 °C, 7 days, resa time 24 hours; for pIC50 Inf. C: Trichophyton rubrum B68183; for IC50: Trichophyton rubrum, B68183, Trichophyton rubrum B68183
Experimental: as §1

[4] = system: Candida parapsilosis B66126; experiment: Antifungal activity in vitro (resazurin susceptibility screen), Inf. D; assay type: cell-based; details: 37 °C, 24 hours, resa time 4 hours; for pIC50 Inf. D: Candida parapsilosis B66126; for IC50: Lodderomyces parapsilosis, B66126, Candida parapsilosis B66126
Experimental: as §1

[5] = system: Aspergillus fumigatus B42928; experiment: Antifungal activity in vitro (resazurin susceptibility screen), Inf. E; assay type: cell-based; details: 27 °C, 48 hours, resa time 17 hours; for pIC50 Inf. E: Aspergillus fumigatus B42928; for IC50: Aspergillus fumigatus, B42928, Aspergillus fumigatus B42928
Experimental: as §1

[6] = system: Cryptococcus neoformans B66663; experiment: Antifungal activity in vitro (resazurin susceptibility screen), Inf. F; assay type: cell-based; details: 37 °C, 24 hours, resa time 4 hours; for pIC50 Inf. F: Cryptococcus neoformans B66663; for IC50: Cryptococcus neoformans, B66663, Cryptococcus neoformans B66663
Experimental: as §1

[7] = system: Trichophyton mentagrophytes B70554; experiment: Antifungal activity in vitro (resazurin susceptibility screen), Inf. G; assay type: cell-based; details: 27 °C, 7 days, resa time 24 hours; for pIC50 Inf. G: Trichophyton mentagrophytes B70554; for IC50: Trichophyton mentagrophytes, B70554, Trichophyton mentagrophytes B70554
Experimental: as §1

[8] = system: Scedosporium apiospermum IHEM3817; experiment: Antifungal activity in vitro (resazurin susceptibility screen), Inf. H; assay type: cell-based; details: 37 °C, 48 hours, resa time 17 hours; for pIC50 Inf. H: Scedosporium apiospermum IHEM3817; for IC50: Scedosporium apiospermum, IHEM3817, Scedosporium apiospermum IHEM3817
Experimental: as §1

[9] = system: Rhizomucor miehei IHEM13391; experiment: Antifungal activity in vitro (resazurin susceptibility screen), Inf. K; assay type: cell-based; details: 37 °C, 48 hours, resa time 17 hours; for pIC50 Inf. K: Rhizomucor miehei IHEM13391; for IC50: Rhizomucor miehei, IHEM13391, Rhizomucor miehei IHEM13391
Experimental: as §1

[10] = system: Mucor circinelloides IHEM21105; experiment: Antifungal activity in vitro (resazurin susceptibility screen), Inf. L; assay type: cell-based; details: 27 °C, 48 hours, resa time 17 hours
Experimental: as §1

| IC50 [1] | IC50 (Rhizopus oryzae IHEM5223) | IC50 [10] | melting point | IC50 [2] | IC50 (Microsporum canis B68128) | IC50 [3] | IC50 [4] | IC50 [5] | IC50 [6] | IC50 [7] | IC50 [8] | IC50 [9] | SMILES | also measured |
| --- | --- | --- | --- | --- | --- | --- | --- | --- | --- | --- | --- | --- | --- | --- |
| – | > 64.6 µM | > 64.6 µM | 132.1 to 134.2 °C | 2.63 µM | 17.4 µM | 5.89 µM | > 64.6 µM | 0.933 µM | 1.41 µM | 2.45 µM | > 64.6 µM | > 64.6 µM | CC(F)(F)c1ccc(C2=NCc3cc(Cl)cc(Cl)c3-n3cccc32)cc1 [Compound 6, 8,10-dichloro-4-[4-(1,1-difluoroethyl)phenyl]-6H-pyrrolo[1,2-a][1,4]benzodiazepine] | – |
| – | – | – | 162.3 to 163.5 °C | > 64.6 µM | 3.98 µM | 3.02 µM | > 64.6 µM | > 64.6 µM | > 64.6 µM | 60.3 µM | – | – | CC(F)(F)c1ccc(C2=NCc3c(Cl)ccc(Cl)c3-n3cccc32)cc1 [Compound 8, 7,10-dichloro-4-[4-(1,1-difluoroethyl)phenyl]-6H-pyrrolo[1,2-a][1,4]benzodiazepine] | – |
| 2.51 µM | 33.9 µM | > 64.6 µM | – | > 64.6 µM | 0.49 µM | 0.0427 µM | 0.631 µM | 0.224 µM | > 64.6 µM | 0.251 µM | > 64.6 µM | > 64.6 µM | CC(F)(F)c1ccc(C2=NCc3c(F)cccc3-n3cccc32)cc1 [Compound 15, 4-[4-(1,1-difluoroethyl)phenyl]-7-fluoro-6H-pyrrolo[1,2-a][1,4]benzodiazepine] | – |
| 1.2 µM | > 64.6 µM | > 64.6 µM | 89.6 to 91.2 °C | 3.8 µM | 2 µM | 0.617 µM | 10.7 µM | 1.7 µM | 0.724 µM | 1.66 µM | 10.2 µM | > 64.6 µM | Cc1cc(Cl)cc2c1CN=C(c1ccc(C(C)(F)F)cc1)c1cccn1-2 [Compound 16, 9-chloro-4-[4-(1,1-difluoroethyl)phenyl]-7-methyl-6H-pyrrolo[1,2-a][1,4]-benzodiazepine] | – |
| 0.794 µM | > 64.6 µM | > 64.6 µM | – | 8.13 µM | 2.14 µM | 0.148 µM | 2.34 µM | 0.501 µM | 1.62 µM | 1.1 µM | > 64.6 µM | 50.1 µM | CC(F)(F)c1ccc(C2=NCc3c(F)cc(F)cc3-n3cccc32)cc1 [Compound 18, 4-[4-(1,1-difluoroethyl)phenyl]-7,9-difluoro-6H-pyrrolo[1,2-a][1,4]benzodiazepine] | – |
| 0.158 µM | > 64.6 µM | > 64.6 µM | – | > 64.6 µM | 0.513 µM | 0.145 µM | 12.9 µM | 0.112 µM | > 64.6 µM | 0.794 µM | 0.575 µM | 26.9 µM | CC(F)(F)c1cc(C2=NCc3c(F)cccc3-n3cccc32)ccc1F [Compound 20, 4-[3-(1,1-difluoroethyl)-4-fluorophenyl]-7-fluoro-6H-pyrrolo[1,2-a][1,4]benzodiazepine] | – |
| 0.0501 µM | > 64.6 µM | > 64.6 µM | – | 3.72 µM | 0.479 µM | 0.195 µM | 2.45 µM | 0.126 µM | 1.58 µM | 0.692 µM | 0.0891 µM | 6.61 µM | CC(F)(F)c1cc(C2=NCc3c(Cl)cccc3-n3cccc32)ccc1F [Compound 21, 7-chloro-4-[3-(1,1-difluoroethyl)-4-fluorophenyl]-6H-pyrrolo[1,2-a][1,4]benzodiazepine] | – |
| – | – | – | 140.9 to 142.1 °C | > 64.6 µM | 7.76 µM | 7.76 µM | > 64.6 µM | > 64.6 µM | > 64.6 µM | > 64.6 µM | – | – | CC(F)(F)c1ccc(C2=NCc3ccc(Cl)c(Cl)c3-n3cccc32)cc1 [Compound 22, 9,10-dichloro-4-[4-(1,1-difluoroethyl)phenyl]-6H-pyrrolo[1,2-a][1,4]benzodiazepine] | – |
| 0.1 µM | > 64.6 µM | > 64.6 µM | – | 2.45 µM | 0.513 µM | 0.288 µM | 1.82 µM | 0.501 µM | 1.02 µM | 1.51 µM | 0.437 µM | 8.32 µM | CC(F)(F)c1ccc(C2=NCc3c(Cl)cc(F)cc3-n3cccc32)cc1 [Compound 27, 7-chloro-4-[4-(1,1-difluoroethyl)phenyl]-9-fluoro-6H-pyrrolo[1,2-a][1,4]benzodiazepine] | – |

| SMILES | IC50 [1] | IC50 (Rhizopus oryzae IHEM5223) | IC50 [10] | melting point | IC50 [2] | IC50 (Microsporum canis B68128) | IC50 [3] | IC50 [4] | IC50 [5] | IC50 [6] | IC50 [7] | IC50 [8] | IC50 [9] | also measured |
| --- | --- | --- | --- | --- | --- | --- | --- | --- | --- | --- | --- | --- | --- | --- |
| CC(F)(F)c1ccc([C@H]2NCc3c(Cl)cccc3-n3cccc32)cc1 (single isomer, unassigned) [Compound 3] | 0.708 µM | > 64.6 µM | – | – | – | – | – | – | – | – | – | – | – | – |
| CC(F)(F)c1ccc(C2NCc3c(Cl)cccc3-n3cccc32)cc1.Cl (centres unmarked) [Compound 1, 7-chloro-4-[4-(1,1-difluoroethyl)phenyl]-5,6-dihydro-4H-pyrrolo[1,2-a][1,4]-benzodiazepine.HCl] | – | – | > 64.6 µM | – | – | – | – | – | – | – | – | – | – | pIC50 Inf. A [2]: 4.68; pIC50 Inf. B (Microsporum canis B68128): 6.45; pIC50 Inf. C [3]: 6.91; pIC50 Inf. D [4]: 5.70; pIC50 Inf. E [5]: 6.72; pIC50 Inf. F [6]: 5.30; pIC50 Inf. G [7]: 6.89; pIC50 Inf. H [8]: <4.19; pIC50 Inf. J (Rhizopus oryzae IHEM5223): <4.19; pIC50 Inf. K [9]: <4.19 |
| CC(F)(F)c1ccc(C2NCc3c(Cl)cccc3-n3cccc32)cc1.Cl [Compound 2, (4S)-7-chloro-4-[4-(1,1-difluoroethyl)phenyl]-5,6-dihydro-4H-pyrrolo[1,2-a][1,4]-benzodiazepine.HCl] | – | – | – | 206.7 to 207.6 °C | – | – | – | – | – | – | – | – | – | pIC50 Inf. A [2]: <4.19; pIC50 Inf. B (Microsporum canis B68128): 5.09; pIC50 Inf. C [3]: 5.82; pIC50 Inf. D [4]: <4.19; pIC50 Inf. E [5]: <4.19; pIC50 Inf. F [6]: <4.19; pIC50 Inf. G [7]: 5.43 |
| CC(F)(F)c1ccc(C2NCc3c(Cl)cccc3-n3cccc32)cc1.Cl [Compound 3, (4R)-7-chloro-4-[4-(1,1-difluoroethyl)phenyl]-5,6-dihydro-4H-pyrrolo[1,2-a][1,4]-benzodiazepine.HCl] | – | – | – | 206.3 to 206.8 °C | – | – | – | – | – | – | – | – | – | pIC50 Inf. A [2]: <4.19; pIC50 Inf. B (Microsporum canis B68128): 6.30; pIC50 Inf. C [3]: 6.96; pIC50 Inf. D [4]: 5.58; pIC50 Inf. E [5]: 5.70; pIC50 Inf. F [6]: 5.26; pIC50 Inf. G [7]: 6.36; pIC50 Inf. H [8]: 5.13; pIC50 Inf. K [9]: 4.59 |
| CC(F)(F)c1ccc(C2NCc3c(Cl)cc(F)cc3-n3cccc32)cc1.Cl (centres unmarked) [Compound 24, 7-chloro-4-[4-(1,1-difluoroethyl)phenyl]-9-fluoro-5,6-dihydro-4H-pyrrolo[1,2-a][1,4]-benzodiazepine.HCl] | – | – | – | 240 to 240.7 °C | > 64.6 µM | 7.76 µM | 0.617 µM | 2.63 µM | 11.5 µM | > 64.6 µM | 1.7 µM | – | – | – |
